ChEMBL document CHEMBL5126541, “Recent applications of vinyl sulfone motif in drug design and discovery” (Eur J Med Chem, 2022)

Key:
A-431 = assay: Cytotoxicity against human A431 cells expressing EGFR incubated for 72 hrs by MTT assay; type: functional, cell-based; conditions: A-431, 72 h
A549 = assay: Cytotoxicity against human A549 cells expressing EGFR incubated for 72 hrs by MTT assay; type: functional, cell-based; conditions: A549, 72 h
NCI-H1975 = assay: Cytotoxicity against human NCI-H1975 cells expressing EGFR T790 mutant incubated for 72 hrs by MTT assay; type: functional, cell-based; conditions: NCI-H1975, 72 h
Aspergillus niger = assay: Antifungal activity against Aspergillus niger assessed as zone of inhibition; type: functional
Escherichia coli = assay: Antimicrobial activity against Escherichia coli assessed as zone of inhibition; type: functional
Klebsiella pneumoniae = assay: Antimicrobial activity against Klebsiella pneumoniae assessed as zone of inhibition; type: functional
Bacillus subtilis = assay: Antimicrobial activity against Bacillus subtilis assessed as zone of inhibition at 100 uM; type: functional
Fusarium solani = assay: Antifungal activity against Fusarium solani assessed as zone of inhibition; type: functional
Staphylococcus aureus = assay: Antimicrobial activity against Staphylococcus aureus assessed as zone of inhibition at 100 uM; type: functional
Curvularia lunata = assay: Antifungal activity against Cochliobolus lunatus assessed as zone of inhibition; type: functional
Ebolavirus = assay: Antiviral activity against Ebola virus pseudotyped infected in HEK293T cells assessed as reduction in viral cytopathic effect; type: functional, organism-based; conditions: Orthoebolavirus, HEK-293T
SARS-CoV = assay: Antiviral activity against SARS-CoV Live SARS-CoV assay and cytotoxicity assessed as reduction in viral cytopathic effect; type: functional, organism-based; conditions: Severe acute respiratory syndrome-related coronavirus
HUVEC = assay: Antitubulin activity against HUVEC assessed as morphological changes of tube incubated for 6 hrs by inverted microscope; type: functional, cell-based; conditions: Homo sapiens
Homo sapiens = organism: Homo sapiens; assay: Inhibition of PI3K (unknown origin) at 20 uM relative to control
HeLa [1] = assay: Cytotoxicity against human HeLa cells; type: functional, cell-based; conditions: pooled result: one value given for 5 cell lines, strains, targets or settings
PC-12 = assay: Neuroprotection against H2O2-induced cell injury in rat PC-12 cells assessed as cell viability preincubated for 3 hrs followed by H2O2 addition measured after 5 hrs by MTT assay; type: functional; conditions: time 8 hrs
Cholinesterase [2] = biological target: T1, Cholinesterase (Homo sapiens, UniProt P06276); assay: Binding affinity to BuChE (unknown origin) assessed as inhibition constant
Cholinesterase [3] = biological target: Cholinesterase (Equus caballus, UniProt P81908); assay: Inhibition of horse serum BuChE preincubated for 5 mins followed by BuCh addition measured after 5 mins by Ellman's method
Acetylcholinesterase = Acetylcholinesterase (Homo sapiens, UniProt P22303); assay: Inhibition of AChE (unknown origin) preincubated for 5 mins followed by […] measured after 5 mins by Ellman's method
Cholinesterase [4] = biological target: T1, Cholinesterase; assay: Inhibition of human serum BuChE preincubated for 5 mins followed by BuCh addition measured after 5 mins by Ellman's method
L1210 = assay: Antiproliferative activity against mouse L1210 cells treated for 48 hrs; type: functional, cell-based; conditions: L1210, 48 h
HeLa [5] = assay: Antiproliferative activity against human HeLa cells treated for 4 days; type: functional, cell-based; conditions: 96 h
CCRF-CEM = assay: Antiproliferative activity against human CEM cells treated for 96 hrs; type: functional, cell-based
Human alphaherpesvirus 3 = assay: Antiviral activity against VZV strain Oka bearing wild type thymidine kinase assessed as reduction in virus induced cytopathogenicity; type: functional, organism-based
[6] = biological target: Telomerase reverse transcriptase (Homo sapiens, UniProt O14746); assay: Inhibition of telomerase (unknown origin)
A-375 = assay: Anticancer activity against human A-375 cells; type: functional, cell-based
MDA-MB-231 = assay: Anticancer activity against human MDA-MB-231 cells; type: functional, cell-based
PC-3 = assay: Cytotoxicity against human PC-3 cells assessed as reduction in cell viability; type: functional, cell-based
HT-29 = assay: Cytotoxicity against human HT-29 cells assessed as reduction in cell viability; type: functional, cell-based
MeWo = assay: Cytotoxicity against human MeWo cells assessed as reduction in cell viability; type: functional, cell-based
SK-OV-3 = assay: Cytotoxicity against human SK-OV-3 cells assessed as reduction in cell viability; type: functional, cell-based
[7] = Cytotoxicity against human SB2 cells assessed as reduction in cell viability; type: functional, cell-based
OVCAR-3 = assay: Cytotoxicity against human OVCAR-3 cells assessed as reduction in cell viability; type: functional, cell-based
[8] = Permeability across blood brain barrier assessed as central nervous system multi-parameter optimization score; type: ADME, tissue-based
[9] = Permeability of the compound across blood brain barrier by PAMPA; type: ADME, tissue-based; conditions: read-out: logBB (converted)
BV-2 = assay: Anti-infalmmatory activity in LPS-induced NO production in mouse BV-2 microglial cells preincubated for 3 hrs followed by LPS addition measured after 24 hrs by NO assay kit; type: functional, cell-based
ES-2 = assay: Cytotoxicity against human ES2 cells incubated for 48 hrs by MTT assay; type: functional, cell-based; conditions: ES-2, 48 h
K562 = assay: Cytotoxicity against human K562 cells incubated for 48 hrs by MTT assay; type: functional, cell-based; conditions: K562, 48 h
[10] = Cytotoxicity against human HO-8910 cells incubated for 48 hrs by MTT assay; type: functional, cell-based; conditions: HO-8910, 48 h
[11] = Cytotoxicity against HBMSC cells incubated for 48 hrs by MTT assay; type: toxicity, cell-based; conditions: human

Sequence of Telomerase reverse transcriptase (O14746 whole entry): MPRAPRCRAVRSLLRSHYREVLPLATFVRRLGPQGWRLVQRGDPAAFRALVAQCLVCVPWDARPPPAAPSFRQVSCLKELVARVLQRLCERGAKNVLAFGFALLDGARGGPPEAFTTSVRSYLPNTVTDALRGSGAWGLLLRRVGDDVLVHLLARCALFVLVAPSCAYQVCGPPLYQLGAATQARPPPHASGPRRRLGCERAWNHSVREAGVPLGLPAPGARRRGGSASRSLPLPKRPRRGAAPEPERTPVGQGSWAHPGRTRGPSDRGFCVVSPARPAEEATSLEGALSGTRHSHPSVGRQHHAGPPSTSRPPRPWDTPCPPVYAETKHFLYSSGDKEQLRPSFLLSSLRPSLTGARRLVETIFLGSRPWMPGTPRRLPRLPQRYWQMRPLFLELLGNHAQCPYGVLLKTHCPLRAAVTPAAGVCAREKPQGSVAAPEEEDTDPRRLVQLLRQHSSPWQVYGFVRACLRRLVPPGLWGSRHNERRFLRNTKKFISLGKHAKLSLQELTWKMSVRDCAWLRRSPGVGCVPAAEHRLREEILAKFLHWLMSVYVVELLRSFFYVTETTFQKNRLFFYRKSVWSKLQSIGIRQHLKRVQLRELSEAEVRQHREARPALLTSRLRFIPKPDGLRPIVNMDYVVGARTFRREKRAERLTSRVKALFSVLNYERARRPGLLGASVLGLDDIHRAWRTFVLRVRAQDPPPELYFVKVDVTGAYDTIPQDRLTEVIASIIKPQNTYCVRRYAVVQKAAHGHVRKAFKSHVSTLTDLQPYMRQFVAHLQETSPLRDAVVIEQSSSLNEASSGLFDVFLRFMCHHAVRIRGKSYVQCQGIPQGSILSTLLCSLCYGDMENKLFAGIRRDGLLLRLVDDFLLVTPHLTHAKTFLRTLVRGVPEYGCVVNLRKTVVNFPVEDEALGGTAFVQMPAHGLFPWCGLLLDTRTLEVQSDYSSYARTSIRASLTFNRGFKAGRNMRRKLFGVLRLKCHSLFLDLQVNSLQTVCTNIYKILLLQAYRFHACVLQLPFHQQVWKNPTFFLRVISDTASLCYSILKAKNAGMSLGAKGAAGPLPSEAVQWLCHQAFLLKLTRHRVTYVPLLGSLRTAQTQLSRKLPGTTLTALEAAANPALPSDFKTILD
T1 sequence (P06276 whole entry): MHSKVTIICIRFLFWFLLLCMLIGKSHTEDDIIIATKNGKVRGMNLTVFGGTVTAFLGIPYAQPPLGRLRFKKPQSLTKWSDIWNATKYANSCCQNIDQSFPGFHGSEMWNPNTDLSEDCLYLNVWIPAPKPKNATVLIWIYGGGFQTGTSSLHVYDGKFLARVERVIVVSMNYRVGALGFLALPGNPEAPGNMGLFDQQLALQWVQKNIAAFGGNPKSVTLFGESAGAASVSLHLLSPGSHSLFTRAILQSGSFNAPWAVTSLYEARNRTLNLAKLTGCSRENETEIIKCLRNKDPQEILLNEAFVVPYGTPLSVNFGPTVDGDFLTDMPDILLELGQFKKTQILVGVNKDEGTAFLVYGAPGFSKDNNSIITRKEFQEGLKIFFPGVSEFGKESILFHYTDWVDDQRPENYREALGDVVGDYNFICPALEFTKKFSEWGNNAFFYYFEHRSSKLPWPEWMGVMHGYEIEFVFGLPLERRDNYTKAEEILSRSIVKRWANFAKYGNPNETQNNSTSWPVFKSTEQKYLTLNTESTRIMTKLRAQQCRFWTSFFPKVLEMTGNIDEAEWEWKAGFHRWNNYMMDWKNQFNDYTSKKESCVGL
Sequence of Acetylcholinesterase (P22303 whole entry): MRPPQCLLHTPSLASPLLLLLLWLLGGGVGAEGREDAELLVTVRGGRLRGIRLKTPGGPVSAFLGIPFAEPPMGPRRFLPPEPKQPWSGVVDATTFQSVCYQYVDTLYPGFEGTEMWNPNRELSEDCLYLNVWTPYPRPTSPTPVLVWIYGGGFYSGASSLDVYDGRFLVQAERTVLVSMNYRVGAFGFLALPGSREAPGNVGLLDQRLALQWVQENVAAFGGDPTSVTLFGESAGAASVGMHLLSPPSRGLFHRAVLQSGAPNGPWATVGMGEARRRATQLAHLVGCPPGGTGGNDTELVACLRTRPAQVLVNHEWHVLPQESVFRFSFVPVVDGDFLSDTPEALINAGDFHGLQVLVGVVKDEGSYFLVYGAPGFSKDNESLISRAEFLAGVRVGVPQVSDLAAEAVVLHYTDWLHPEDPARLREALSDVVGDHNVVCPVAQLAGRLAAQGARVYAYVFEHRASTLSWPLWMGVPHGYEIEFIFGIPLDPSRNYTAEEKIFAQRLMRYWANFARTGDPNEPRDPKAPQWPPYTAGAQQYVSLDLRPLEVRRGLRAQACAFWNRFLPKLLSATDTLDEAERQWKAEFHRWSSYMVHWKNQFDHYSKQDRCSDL
Sequence of Cholinesterase (Equus caballus, UniProt P81908) (P81908 whole entry): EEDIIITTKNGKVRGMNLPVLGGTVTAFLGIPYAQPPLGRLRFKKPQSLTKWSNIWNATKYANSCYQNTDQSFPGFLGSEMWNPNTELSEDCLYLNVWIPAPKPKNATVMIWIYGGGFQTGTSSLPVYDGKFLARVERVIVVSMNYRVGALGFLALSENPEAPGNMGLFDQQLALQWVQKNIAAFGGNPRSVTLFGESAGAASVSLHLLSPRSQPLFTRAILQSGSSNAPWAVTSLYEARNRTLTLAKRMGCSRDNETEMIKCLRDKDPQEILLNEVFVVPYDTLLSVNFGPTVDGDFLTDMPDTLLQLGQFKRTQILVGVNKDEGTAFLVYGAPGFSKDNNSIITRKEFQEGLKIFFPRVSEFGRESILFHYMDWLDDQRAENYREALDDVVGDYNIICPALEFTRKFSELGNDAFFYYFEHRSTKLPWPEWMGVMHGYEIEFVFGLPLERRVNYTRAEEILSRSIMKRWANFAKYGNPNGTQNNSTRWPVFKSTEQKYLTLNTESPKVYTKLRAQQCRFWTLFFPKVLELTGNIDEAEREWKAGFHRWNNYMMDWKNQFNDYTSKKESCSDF

## COc1cc(/C=C/S(=O)(=O)c2ccccc2)cc(OC)c1OC
A-431
  IC50: 33500 nM
A549
  IC50: 54600 nM
NCI-H1975
  IC50: 30400 nM

## O=C(c1ccc(Cl)cc1)c1c[nH]cc1S(=O)(=O)c1n[nH]cc1-c1ccccc1
Aspergillus niger
  Activity: >26 mm
Escherichia coli
  Activity: >20 mm
Klebsiella pneumoniae
  Activity: >20 mm
Bacillus subtilis
  Activity: >25 mm
Fusarium solani
  Activity: >26 mm
Staphylococcus aureus
  Activity: >25 mm
Curvularia lunata
  Activity: >26 mm

## COCCN1CCN(C(=O)N[C@@H](Cc2ccccc2)C(=O)N[C@H](/C=C/S(=O)(=O)c2ccccc2)CCc2ccccc2)CC1
Ebolavirus
  IC50: 0.04 nM
SARS-CoV
  IC50: 0.04 nM

## CC(C)N1CCN(C(=O)N[C@@H](Cc2ccccc2)C(=O)N[C@H](/C=C/S(=O)(=O)c2ccccc2)CCc2ccccc2)CC1
Ebolavirus
  IC50: 0.04 nM
SARS-CoV
  IC50: 0.04 nM

## COc1ccc(/C=C/S(=O)(=O)c2cc(OC)c(OC)c(OC)c2)cc1N
HUVEC
  IC50: 4250 nM

## O=c1oc2ccc(Br)cc2cc1S(=O)(=O)Cc1ccc(F)cc1
Homo sapiens
  inhibition: 50%
HeLa [1]
  IC50: 29300 nM

## O=S(=O)(/C=C/c1ccc(O)c(O)c1)CCCc1ccccc1
PC-12
  Activity: 94.5%

## O=c1oc2ccc([N+](=O)[O-])cc2cc1S(=O)(=O)Cc1ccc(F)cc1
Homo sapiens
  inhibition: 50%
HeLa [1]
  IC50: 18100 nM

## CCN1CCN(C(=O)N[C@@H](Cc2ccccc2)C(=O)N[C@H](/C=C/S(=O)(=O)c2ccccc2)CCc2ccccc2)CC1
Ebolavirus
  IC50: 0.04 nM
SARS-CoV
  IC50: 0.04 nM

## COc1ccccc1/C=C/C=C(\Br)S(=O)(=O)F
Cholinesterase [2]
  Ki: 29 nM
Cholinesterase [3]
  IC50: 21 nM
Acetylcholinesterase
  IC50: 79 nM
Cholinesterase [4]
  IC50: 3620 nM

## CC(=O)OC[C@H]1O[C@@H](n2cc(/C(Cl)=C\S(=O)(=O)c3ccc(C)cc3)c(=O)[nH]c2=O)C[C@@H]1OC(C)=O
L1210
  IC50: 5600 nM
HeLa [5]
  IC50: 23000 nM
CCRF-CEM
  IC50: 11000 nM
Human alphaherpesvirus 3
  EC50: 4000 nM

## O=C(c1ccc(Cl)cc1)c1c[nH]cc1S(=O)(=O)c1c(-c2ccc(Cl)cc2)noc1-c1ccccc1
Aspergillus niger
  Activity: >26 mm
Escherichia coli
  Activity: >20 mm
Klebsiella pneumoniae
  Activity: >20 mm
Bacillus subtilis
  Activity: >25 mm
Fusarium solani
  Activity: >26 mm
Staphylococcus aureus
  Activity: >25 mm
Curvularia lunata
  Activity: >26 mm

## O=C(N[C@H](CO)[C@H](O)c1ccc([N+](=O)[O-])cc1)C(Cl)Cl [CHLORAMPHENICOL]
Escherichia coli
  Activity: >35 mm
Klebsiella pneumoniae
  Activity: >35 mm

## O=S(=O)(F)/C=C/C=C/c1ccc(/C=C/S(=O)(=O)F)cc1
[6]
  IC50: < 1000 nM
A-375
  IC50: 1580 nM
MDA-MB-231
  IC50: 3220 nM

## O=c1[nH]c(=O)n([C@H]2C[C@H](O)[C@@H](CO)O2)cc1/C=C/Br [BRIVUDINE]
Human alphaherpesvirus 3
  EC50: 20 nM

## CN1CCN(C(=O)N[C@@H](Cc2ccccc2)C(=O)N[C@H](/C=C/S(=O)(=O)c2ccccc2)CCc2ccccc2)CC1 [K-777]
Ebolavirus
  IC50: 0.36 nM

## O=S(=O)(F)/C=C/c1ccc(-c2ccccc2)cc1
[6]
  IC50: < 1000 nM

## CC(C)(C)N1CCN(C(=O)N[C@@H](Cc2ccccc2)C(=O)N[C@H](/C=C/S(=O)(=O)c2ccccc2)CCc2ccccc2)CC1
Ebolavirus
  IC50: 0.04 nM
SARS-CoV
  IC50: 0.04 nM

## COc1cc(OC)c(/C=C/S(=O)(=O)Cc2ccc(OC)c(NCC(=O)O)c2)c(OC)c1 [RIGOSERTIB SODIUM]
HeLa [1]
  IC50: 10 nM

## C=C(CCCCCCCCCCCCCCCC)S(=O)(=O)CCC[N+](C)(C)C
PC-3
  IC50: 390 nM
HT-29
  IC50: 390 nM
MeWo
  IC50: 390 nM
SK-OV-3
  IC50: 390 nM
[7]
  IC50: 390 nM
OVCAR-3
  IC50: 390 nM

## O=C(N[C@H](/C=C/S(=O)(=O)c1ccccc1)CCc1ccccc1)[C@H](Cc1ccccc1)NC(=O)N1CCN(c2ccccc2)CC1
Ebolavirus
  IC50: 0.04 nM
SARS-CoV
  IC50: 0.04 nM

## CC(=O)N1CCN(c2ccc(OCC3COC(Cn4ccnc4)(c4ccc(Cl)cc4Cl)O3)cc2)CC1 (centres undefined) [KETOCONAZOLE]
Aspergillus niger
  Activity: >36 mm
Fusarium solani
  Activity: >36 mm
Curvularia lunata
  Activity: >36 mm

## O=S(=O)(/C=C/c1ccc(O)c(O)c1)CCCC1CCCC1
[8]
  Activity: 4.36
[9]
  Kp: 0.316
BV-2
  IC50: 1600 nM

## O=S(=O)(F)/C=C/c1ccc2ccccc2c1
[6]
  IC50: < 1000 nM

## CCCN1CCN(C(=O)N[C@@H](Cc2ccccc2)C(=O)N[C@H](/C=C/S(=O)(=O)c2ccccc2)CCc2ccccc2)CC1
Ebolavirus
  IC50: 0.04 nM
SARS-CoV
  IC50: 0.04 nM

## CC(=O)c1ccc(/C(=C\C(F)(F)F)S(=O)(=O)c2ccccc2)cc1
ES-2
  IC50: 400 nM
K562
  IC50: 200 nM
[10]
  IC50: 400 nM
[11]
  IC50 at 48 h: 200 nM
